# Measurements published in patent US20260373266A1, “PROTEIN DEGRADERS AND USES THEREOF” (KYMERA THERAPEUTICS, INC., priority 2022, published 2026).
# Read-outs that look alike come from different tables or passages of the source.
# Target: T1, DCAF1 WD40 domain (residues 1077-1390) (Homo sapiens, UniProt Q9Y4B6)
# T1 construct: DCAF1 WD40 domain (residues 1077-1390)
# Assay: DCAF1 binding assay by SPR (Biacore 8K+), DCAF1-3 KD
# Conditions: 25 °C
# T1 sequence (Q9Y4B6 1077-1390): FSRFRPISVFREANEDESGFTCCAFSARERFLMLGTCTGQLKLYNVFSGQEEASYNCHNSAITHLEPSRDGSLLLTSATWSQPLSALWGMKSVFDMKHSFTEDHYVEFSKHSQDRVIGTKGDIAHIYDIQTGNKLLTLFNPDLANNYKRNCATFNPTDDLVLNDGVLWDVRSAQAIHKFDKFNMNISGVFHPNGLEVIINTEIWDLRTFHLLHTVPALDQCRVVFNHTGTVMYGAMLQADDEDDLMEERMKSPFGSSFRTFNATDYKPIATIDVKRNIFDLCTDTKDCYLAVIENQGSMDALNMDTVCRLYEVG
SMILES,Kd (read-out: DCAF1-3 SPR (KD)),Kd (DCAF1-3 SPR (KD))
Oc1ccc(F)cc1N1CCC[C@H]2[C@@H]1CCN2c1cc(N2CCCCC2)ccn1 [I-813],10 to 100 µM,
c1ccc2ncc(N3CCC[C@@H](Nc4cc(N5CCOCC5)ncn4)C3)cc2c1 [I-399],> 200 µM,
"NC(=O)OCc1cc(F)cc(N2CCC[C@H]3[C@@H]2CCN3c2cc(N3CC4CC(C4)C3)ccn2)c1 [I-1035, 3-((3aS,7aS)-1-(4-(3-azabicyclo[3.1.1]heptan-3-yl)pyridin-2-yl)octahydro-4H-pyrrolo[3,2-b]pyridin-4-yl)-5-fluorobenzyl carbamate]",,< 10 µM
Nc1ccc(N2CCC[C@H]3[C@@H]2CCN3c2cc(N3CC4CC(C4)C3)ccn2)cc1F [I-734],10 to 100 µM,
CCCN1CCN(c2cc(N[C@@H]3CCCN(c4cccc(F)c4)C3)ncn2)CC1 [I-376],> 200 µM,
c1cc2ccc(N3CCC[C@@H](Nc4cc(N5CCOCC5)ncn4)C3)cc2cn1 [I-402],> 200 µM,
Cc1cccc(N2CCC[C@@H](Nc3cc(N4CCOCC4)ccn3)C2)c1 [I-510],100 to 200 µM,
O=C(CC1CN(C(=O)N2CCC=C(F)C2)CCO1)Nc1ccccn1 (centres unmarked) [I-86],> 200 µM,
c1cnc2c(N3CCC[C@@H](Nc4cc(N5CCOCC5)ncn4)C3)cccc2c1 [I-396],> 200 µM,
CCOC(=O)Cc1ccc(N2CCC[C@@H](Nc3cc(N4CCOCC4)ccn3)C2)cn1 [I-782],> 200 µM,
Fc1cccc(N2CCNC(Cc3cc(N4CCOCC4)ncn3)C2)c1 (centres unmarked) [I-225],> 200 µM,
c1cc(N2CCC[C@@H](Nc3cc(N4CCOCC4)ncn3)C2)c2cnccc2c1 [I-395],> 200 µM,
C[C@@H]1C[C@@H](Nc2cc(N3CCOCC3)ncn2)CN(c2cccc(F)c2)C1 [I-177],> 200 µM,
CC(C)CNc1ccc(N2CCC[C@@H](Nc3cc(N4CCOCC4)ccn3)C2)cc1 [I-693],10 to 100 µM,
Fc1cccc(N[C@@H]2CCCN(c3cc(N4CCCCC4)ccn3)C2)c1 [I-645],> 200 µM,
NC(=O)c1ccc(N2CCC[C@@H](Nc3cc(N4CCOCC4)ccn3)C2)cc1 [I-769],> 200 µM,
COCCN1CCN(c2cc(N[C@@H]3CCCN(c4cccc(F)c4)C3)ncn2)CC1 [I-378],> 200 µM,
CC1CCN(c2ccnc(N[C@@H]3CCCN(c4cccc(F)c4)C3)c2)CC1 [I-571],10 to 100 µM,
Fc1cccc(N2CCC[C@@H](Nc3cc(N4C5CCCC4CC5)ccn3)C2)c1 [I-617],< 10 µM,
O[C@H]1CCCN(c2ccnc(N3CC[C@@H]4[C@H]3CCCN4c3cccc(F)c3)c2)C1 [I-800],< 10 µM,

SMILES,Kd (read-out: DCAF1-3 SPR (KD)),Kd (DCAF1-3 SPR (KD))
Oc1cccc(N2CCC[C@@H](Nc3cc(N4CCOCC4)ncn3)C2)c1 [I-13],> 200 µM,
NCCCCCCCCCCCC1CCN(c2ccnc(N3CC[C@@H]4[C@H]3CCCN4c3cccc(F)c3)c2)CC1 [I-721],< 10 µM,
c1cc2ccnc(N3CCC[C@@H](Nc4cc(N5CCOCC5)ccn4)C3)c2cn1 [I-68],100 to 200 µM,
CN(c1cc(N2CCOCC2)ncn1)[C@@H]1CCCN(c2cccc(F)c2)C1 [I-385],> 200 µM,
C=CC(=O)NCCCCN1CCN(c2ccnc(N(CCCOCCOCCOCCOCCNC(=O)C[C@@H]3N=C(c4ccc(Cl)cc4)c4c(sc(C)c4C)-n4c(C)nnc43)[C@@H]3CCCN(c4cccc(F)c4)C3)c2)CC1 [I-906],100 to 200 µM,
NCCCCCCCCCCCCCCC1CCN(c2ccnc(N3CC[C@@H]4[C@H]3CCCN4c3cccc(F)c3)c2)CC1 [I-725],10 to 100 µM,
CS(=O)(=O)N(c1cc(N2CCOCC2)ccn1)[C@@H]1CCCN(c2cccc(F)c2)C1 [I-304],> 200 µM,
Fc1cccc(N2CCC[C@@H](Nc3cncc(N4CCCCC4)c3)C2)c1 [I-528],> 200 µM,
Fc1cccc(N2CCC[C@@H](Nc3cnnc(N4CCOCC4)c3)C2)c1 [I-381],> 200 µM,
Cc1sc2c(c1C)C(c1ccc(Cl)cc1)=N[C@@H](CC(=O)NCCOCCOCCOCCOCCOCCC1CCN(c3ccnc(N4CC[C@@H]5[C@H]4CCCN5c4cccc(F)c4)c3)CC1)c1nnc(C)n1-2 [I-891],< 10 µM,
NC[C@@H]1CC[C@H](Nc2cc(N3CCCCC3)ccn2)CN1c1cccc(F)c1 [I-1022],10 to 100 µM,
CC1(Nc2cc(N3CCOCC3)ccn2)CCCN(c2cccc(F)c2)C1 (centres unmarked) [I-222],> 200 µM,
COc1ccc(N2CCC[C@@H]3[C@H]2CCN3c2cc(N3CC4CC(C4)C3)ccn2)cc1F [I-722],> 200 µM,
CS(=O)(=O)CCCC(=O)N1CCC[C@@H](Nc2cc(N3CCOCC3)ccn2)C1 [I-768],> 200 µM,
NC(=O)N1Cc2ccc(N3CCC[C@@H]4[C@H]3CCN4c3cc(N4CCCCC4)ccn3)cc2C1 [I-957],10 to 100 µM,
C[C@H]1CC[C@H](O)CN1c1ccnc(N2CC[C@@H]3[C@H]2CCCN3c2cccc(F)c2)c1 [I-823],< 10 µM,
N[C@@H](c1cncc(N2CCC[C@@H](Nc3cc(N4CCOCC4)ccn3)C2)c1)C1CC1 [I-485],> 200 µM,
COCCOCC[C@@H]1CCCN(c2ccnc(N3CC[C@@H]4[C@H]3CCCN4c3cccc(F)c3)c2)C1 [I-704],> 200 µM,
N#Cc1cnc(N2CCOCC2)cc1N[C@@H]1CCCN(c2cccc(F)c2)C1 [I-408],> 200 µM,
NC[C@@H]1C[C@H](Nc2cc(N3CCCCC3)ccn2)CN(c2cccc(F)c2)C1 [I-1042],10 to 100 µM,

# Other lines, results leading:
Kd (read-out: DCAF1-3 SPR (KD)),Kd (DCAF1-3 SPR (KD)),SMILES
10 to 100 µM,,Cc1sc2c(c1C)C(c1ccc(Cl)cc1)=N[C@@H](CC(=O)NCCOCCOCCOCCOCCn1cc(C(=O)N[C@@H](CC(N)=O)c3cccc(Cl)c3)c(-c3ccccc3F)n1)c1nnc(C)n1-2 [I-490]
< 10 µM,,Cc1c(F)ccc(F)c1-c1c(C(=O)N[C@@H](CC(=O)N2CC[C@@H](O)C2)c2cccc(Cl)c2)cn(C)c1C#N [I-1005]
10 to 100 µM,,C=CC(=O)N1CCC(N(C)c2ccnc(N[C@@H]3CCCN(c4cccc(F)c4)C3)c2)CC1 [I-460]
< 10 µM,,Cc1[nH]cc(C(=O)N[C@@H](CC(N)=O)c2cccc(Cl)c2)c1-c1c(F)cccc1F [I-585]
100 to 200 µM,,Cc1c(F)ccc(F)c1-c1[nH]ncc1C(=O)N[C@@H](c1cccc(Cl)c1)[C@H]1CCOC1 [I-965]
10 to 100 µM,,Oc1ccc(C2CCCCC2)cc1N[C@@H]1CCCN(c2cccc(F)c2)C1 [I-921]
100 to 200 µM,,Fc1cccc(N2CCC[C@@H](n3ccc4c(N5CCOCC5)ccnc43)C2)c1 [I-49]
> 200 µM,,Fc1cccc(N2CCC[C@@H](Nc3cc([C@@H]4CCCNC4)ccn3)C2)c1 [I-109]
10 to 100 µM,,c1ccc(Oc2cncc(N3CCC[C@@H](Nc4cc(N5CCOCC5)ccn4)C3)c2)cc1 [I-436]
> 200 µM,,O=C1C[C@@H]([C@@H](NC(=O)c2cn[nH]c2-c2ccccc2F)c2cccc(Cl)c2)CN1 [I-560]
> 200 µM,,NC(=O)C[C@@]1(NC(=O)c2cn[nH]c2-c2ccccc2F)CCc2ccc(Cl)cc21 [I-361]
> 200 µM,,O=C(C[C@H](NC(=O)c1cn[nH]c1-c1ccccc1F)c1cccc(Cl)c1)NC1CC1 [I-142]
10 to 100 µM,,NC(=O)C[C@H](NC(=O)c1cn[nH]c1C1CCOCC1)c1ccccc1 [I-501]
< 10 µM,,Cc1cccc([C@H](CC(N)=O)NC(=O)c2cn[nH]c2-c2ccccc2F)c1 [I-108]
> 200 µM,,NC(=O)C[C@H](NC(=O)CNC1=Nc2ccccc2CC1)c1cccc(Cl)c1 [I-440]
< 10 µM,,Cc1c(F)ccc(F)c1-c1c(C(=O)NC(CC(N)=O)c2cccc(Cl)c2)cn(C)c1C(=O)COCCOCCOCCOCCOCCN (centres unmarked) [I-844]
> 200 µM,,Fc1cccc(N2CCC[C@@H](Nc3cc(C4=CCCOC4)ccn3)C2)c1 [I-122]
10 to 100 µM,,Oc1ccc(N2CCC[C@@H](Nc3cc(N4CCCCC4)ccn3)C2)cc1F [I-716]
> 200 µM,,NC(=O)C[C@H](N/C(=N\O)c1cn[nH]c1-c1ccccc1F)c1cccc(Cl)c1 [I-162]
> 200 µM,,NC(=O)C[C@H](NC(=O)c1c[nH]nc1-c1cccc2nc[nH]c12)c1cccc(Cl)c1 [I-239]

Kd (read-out: DCAF1-3 SPR (KD)),Kd (DCAF1-3 SPR (KD)),SMILES
< 10 µM,,COCCC(=O)c1[nH]cc(C(=O)N[C@@H](CC(N)=O)c2cccc(Cl)c2)c1-c1ccccc1F [I-524]
10 to 100 µM,,C[C@H](C(N)=O)[C@H](NC(=O)c1c[nH]nc1-c1ccccc1F)c1cccc(Cl)c1 [I-147]
10 to 100 µM,,CNC(=O)C[C@H](NC(=O)c1cn[nH]c1-c1ccccc1F)c1cccc(Cl)c1 [I-79]
10 to 100 µM,,C[C@@H]1CCCN(c2ccnc(N[C@@H]3CCCN(c4cccc(F)c4)C3)c2)C1 [I-552]
10 to 100 µM,,c1ccc(N2CCC[C@@H](Nc3cc(N4CCOCC4)ccn3)C2)cc1 [I-75]
> 200 µM,,Cn1nnnc1-c1ccc(F)c(-c2n[nH]cc2C(=O)N[C@@H](CC(N)=O)c2cccc(Cl)c2)c1 [I-268]
> 200 µM,,NC(=O)C[C@H](NC(=O)c1cn[nH]c1N1CCCCC1)c1cccc(Cl)c1 [I-159]
< 10 µM,,Cc1c(F)ccc(F)c1-c1c(C(=O)N[C@@H](CC(N)=O)c2cccc(Cl)c2)c[nH]c1/C(=N/OC(C)C)c1ccccc1 [I-759]
10 to 100 µM,,O=C(O)C[C@H](NC(=O)c1cn[nH]c1-c1ccccc1F)c1cccc(Cl)c1 [I-740]
< 10 µM,,Cc1c(F)ccc(F)c1-c1c(C(=O)N[C@@H](CC(N)=O)c2cccc(Cl)c2)c[nH]c1C(=O)c1ccccc1 [I-653]
< 10 µM,,NC(=O)C[C@H](NC(=O)c1c[nH]c(C(N)=O)c1-c1ccccc1F)c1cccc(Cl)c1 [I-599]
> 200 µM,,Clc1cccc(N2CCC[C@@H]3[C@H]2CCN3c2cc(N3CC4CC(C4)C3)ccn2)c1 [I-707]
< 10 µM,,N#Cc1[nH]cc(C(=O)N[C@@H](CC(N)=O)c2cccc(Cl)c2)c1-c1ccccc1F [I-598]
> 200 µM,,NC(=O)C[C@H](NC(=O)c1cn[nH]c1[C@@H]1CCCOC1)c1cccc(Cl)c1 [I-346]
> 200 µM,,NC(=O)[C@@H]1CCN(C(=O)c2c[nH]nc2-c2ccccc2F)[C@@H]1c1cccc(Cl)c1 [I-204]
> 200 µM,,Fc1cccc(N2CCC[C@@H](Nc3cc(N4CCOCC4)cnn3)C2)c1 [I-20]
> 200 µM,,NC(=O)C[C@H](NC(=O)c1cnn(Cc2ccccc2)c1-c1ccccc1F)c1cccc(Cl)c1 [I-140]
< 10 µM,,Cc1cc(CCCOCCOCCOCCOCCOCCN)cc(F)c1-c1c(C(=O)N[C@@H](CC(N)=O)c2cccc(Cl)c2)c[nH]c1C#N [I-918]
> 200 µM,,NC(=O)C[C@H](C(=O)Nc1cnn(Cc2ccccc2)c1-c1ccccc1F)c1cccc(Cl)c1 [I-153]
< 10 µM,,Cc1sc2c(c1C)C(c1ccc(Cl)cc1)=N[C@@H](CC(=O)NCCOCCOCCOCCOCCOCC(=O)c1[nH]cc(C(=O)N[C@@H](CC(N)=O)c3cccc(Cl)c3)c1-c1ccccc1F)c1nnc(C)n1-2 [I-897]
